Reference: patent US6506339B1, “Method of sterilization” (Biomedical Design, Inc., priority 1997, dated 2003)
Several values for one entry are separate records, joined by “and”; a condition that tells them apart may be missing. Equal entries are not always repeated.

Key:
Format in all cases: cell-based
[1] = test system: Mycobacterium Chelonae ATCC 35752; test: Sterilization test, Mycobacterium chelonae in sterile cups at room temperature (Example 1); settings: EDC plus Sulfo-NHS, 20% isopropyl alcohol
Protocol: Porcine aortic roots are fixed by cross-linking according to the method described in U.S. Pat. No. 5,447,536. After fixation, the valves are stored in 10 mM HEPES, 0.85% NaCl, 20% isopropyl alcohol, pH 7.4, at 4° C. The sterility tests described in the following examples are in most cases conducted in the presence of bioprosthetic heart valve tissue; when such tissue is not present, the solutions are simply filtered through a 0.45 micron filter attached to a funnel (filter funnel). The filters are then rinsed with peptone water to eliminate residual chemicals on the membrane that may prevent growth of the organisms tested. Such membrane filters are then incubated on TSA plates at about 32° to 33° C., e.g. 32.5° C. When an aortic valve is inoculated with microorganisms for test purposes and then submitted to sterilization, the solution is filtered as described above. The aortic valve tissue is then washed for 20 minutes in a reciprocating shaker in the presence of peptone water containing Tween 80 in order to extract all indigenous spores or microorganisms from the tissue. This solution is filtered and then incubated as described above. […] Resistance to calcification is assessed by subdermal implantation of sterilized leaflets and aortic wall coupons in young rats, as also described in the '536 U.S. patent. […]

[2] = test system: spores of Bacillus subtilis; test: Effect of EDC concentration, temperature and duration on spores on cross-linked tissue (Example 4); settings: 20% IPA
Protocol: The following experiment was designed to test the effect of EDC concentration, of temperature and of duration of incubation on the inactivation of spores of Bacillus subtilis. The EDC concentrations tested were 5, 12.5 and 20 mM; the temperatures were 25, 32.5 and 40° C. for 4, 24 and 44 hours of incubation. […] Spores of Bacillus subtilis (about 2.5×10^5 per sample) were inoculated on tissue that had been cross-linked using the fixation method described in the '536 patent. The spores were allowed to contact the tissue for 10 minutes, after which time 50 ml of a solution of EDC at one of the concentrations indicated above was added to each cup containing the tissue plus the spores, and incubation was carried out at the respective temperatures and for the respective lengths of time. After such incubation for either 4, 24 or 44 hours, the solutions were filtered to recover the spores, and these were incubated on TSA plates for 2 weeks at 32 to 33° C. The tissue samples were washed with a solution containing a surfactant to fully extract the spores from the tissue, and the resulting solutions were filtered. After washing with 0.1% peptone water, the filters were incubated on TSA plates for 2 weeks at 32 to 33° C. in order to determine the number of survivors on or in the tissue. The colonies were enumerated for both the EDC solutions and the tissue wash solutions, and the results (numbers of colony forming units) were added.

[3] = test system: Mycobacterium Chelonae ATCC 35752; test: Sterilization test, Mycobacterium chelonae in sterile cups at room temperature (Example 1); design: key: (+) Indicates growth; (−) indicates no growth or complete kill; settings: 10 mM EDC+1 mM Sulfo-NHS, 20% isopropyl alcohol
Protocol: Porcine aortic roots are fixed by cross-linking according to the method described in U.S. Pat. No. 5,447,536. After fixation, the valves are stored in 10 mM HEPES, 0.85% NaCl, 20% isopropyl alcohol, pH 7.4, at 4° C. The sterility tests described in the following examples are in most cases conducted in the presence of bioprosthetic heart valve tissue; when such tissue is not present, the solutions are simply filtered through a 0.45 micron filter attached to a funnel (filter funnel). The filters are then rinsed with peptone water to eliminate residual chemicals on the membrane that may prevent growth of the organisms tested. Such membrane filters are then incubated on TSA plates at about 32° to 33° C., e.g. 32.5° C. When an aortic valve is inoculated with microorganisms for test purposes and then submitted to sterilization, the solution is filtered as described above. The aortic valve tissue is then washed for 20 minutes in a reciprocating shaker in the presence of peptone water containing Tween 80 in order to extract all indigenous spores or microorganisms from the tissue. This solution is filtered and then incubated as described above. All microbiological testing is performed in a biological laminar flow hood to prevent contamination. The shrinkage temperature and the proteolytic (collagenase and protease) degradation tests are conducted as previously described in the '536 patent. Resistance to calcification is assessed by subdermal implantation of sterilized leaflets and aortic wall coupons in young rats, as also described in the '536 U.S. patent.
Mycobacterium Chelonae ATCC 35752 (˜10^5) was inoculated in sterile cups. A 10 mM HEPES, 0.85% NaCl, pH 6.5 solution containing 10 mM EDC and 1 mM Sulfo-NHS in the presence or absence of 20% isopropyl alcohol was maintained in contact with the bacteria in the cups for various periods of time (treatment duration). The cups were maintained at room temperature, and the solutions were then filtered. The filters were then incubated at about 32-33° C. for up to 6 weeks (incubation duration) using either Trypticase Soy Agar (TSA) plates or Trypticase Soy Broth (TSB). All inoculations were done in duplicate.

[4] = 5 mM EDC, 25° C., 4 hrs, about 2.5×10^5 spores on tissue
[5] = 5 mM EDC, 25° C., 44 hrs, about 2.5×10^5 spores on tissue
[6] = 5 mM EDC, 32.5° C., 24 hrs, about 2.5×10^5 spores on tissue
[7] = 5 mM EDC, 40° C., 4 hrs, about 2.5×10^5 spores on tissue
[8] = 12.5 mM EDC, 25° C., 24 hrs, about 2.5×10^5 spores on tissue
[9] = 12.5 mM EDC, 32.5° C., 4 hrs, about 2.5×10^5 spores on tissue
[10] = 12.5 mM EDC, 32.5° C., 24 hrs, about 2.5×10^5 spores on tissue (conditions 8-11, replicates), hydrochloride
[11] = 12.5 mM EDC, 32.5° C., 44 hrs, about 2.5×10^5 spores on tissue
[12] = 12.5 mM EDC, 40° C., 24 hrs, about 2.5×10^5 spores on tissue
[13] = 20 mM EDC, 25° C., 4 hrs, about 2.5×10^5 spores on tissue
[14] = 20 mM EDC, 25° C., 44 hrs, about 2.5×10^5 spores on tissue
[15] = 20 mM EDC, 32.5° C., 24 hrs, about 2.5×10^5 spores on tissue

In the case of `CCN=C=NCCCN(C)C.Cl` [EDC, 1-ethyl-3(3-dimethylaminopropyl)carbodiimide hydrochloride], the “sterilization treatment time that kills all Mycobacterium chelonae” value [1] is reported as ≤ 12 h, the “LOG REDUCTION” value [2, 4] is reported as “.27” and the SURVIVORS [2, 4] is reported as 135000 CFUs. For the same compound, the “LOG REDUCTION” value [2, 5] was 2.3, the SURVIVORS [2, 5] was 1300 CFUs and the “LOG REDUCTION” value [2, 6] was 3.0. The SURVIVORS [2, 6] was 208 CFUs, the “LOG REDUCTION” value [2, 7] was 2.4 and the SURVIVORS [2, 7] was 1100 CFUs. The SURVIVORS ([2]; 5 mM EDC, 40° C., 44 hrs, about 2.5×10^5 spores on tissue) was 21 CFUs, the “LOG REDUCTION” value [2, 8] was 3.0 and the SURVIVORS [2, 8] was 225 CFUs. The “LOG REDUCTION” value [2, 9] was 1.6, the SURVIVORS [2, 9] was 5900 CFUs and the “LOG REDUCTION” value [2, 10] was 3.6 and 3.9 and 3.4 and 3.7. The SURVIVORS [2, 10] was 57 CFUs and 34 CFUs and 94 CFUs and 44 CFUs, the “LOG REDUCTION” value [2, 11] was 3.9 and the SURVIVORS [2, 11] was 33 CFUs. The “LOG REDUCTION” value [2, 12] was 4.0, the SURVIVORS [2, 12] was 27 CFUs and the “LOG REDUCTION” value [2, 13] was 0.9. For the same compound, the SURVIVORS [2, 13] was 31400 CFUs, the “LOG REDUCTION” value [2, 14] was 4.2 and the SURVIVORS [2, 14] was 16 CFUs. The “LOG REDUCTION” value [2, 15] was 4.0, the SURVIVORS [2, 15] was 24 CFUs and the SURVIVORS ([2]; 20 mM EDC, 40° C., 4 hrs, about 2.5×10^5 spores on tissue) was 5 CFUs. For the same compound, the “LOG REDUCTION” value ([2]; 20 mM EDC, 40° C., 44 hrs, about 2.5×10^5 spores on tissue) was 5.4, the growth ([3]; treatment 0 hour, incubation 1 Day, TSA) was “−,−” and the growth ([3]; treatment 0 hour, incubation 1 Day, TSB) was “−,−”. The growth ([3]; treatment 0 hour, incubation 1 Week, TSA) was “−,−”, the growth ([3]; treatment 0 hour, incubation 1 Week, TSB) was “−,−” and the growth ([3]; treatment 12 hours, incubation 1 Day, TSA) was “−,−”. For the same compound, the growth ([3]; treatment 12 hours, incubation 1 Day, TSB) was “−,−”, the growth ([3]; treatment 12 hours, incubation 1 Week, TSA) was “−,−” and the growth ([3]; treatment 12 hours, incubation 1 Week, TSB) was “−,−”. For the same compound, the growth ([3]; treatment 12 hours, incubation 3 Week, TSA) was “−,−”, the growth ([3]; treatment 12 hours, incubation 3 Week, TSB) was “−,−” and the growth ([3]; treatment 12 hours, incubation 4 Week, TSA) was “−,−”. For the same compound, the growth ([3]; treatment 12 hours, incubation 4 Week, TSB) was “−,−”, the growth ([3]; treatment 12 hours, incubation 6 Week, TSA) was “−,−” and the growth ([3]; treatment 12 hours, incubation 6 Week, TSB) was “−,−”. The growth ([3]; treatment 24 hours, incubation 1 Day, TSA) was “−,−”, the growth ([3]; treatment 24 hours, incubation 1 Day, TSB) was “−,−” and the growth ([3]; treatment 24 hours, incubation 1 Week, TSA) was “−,−”. For the same compound, the growth ([3]; treatment 24 hours, incubation 1 Week, TSB) was “−,−”, the growth ([3]; treatment 24 hours, incubation 3 Week, TSA) was “−,−” and the growth ([3]; treatment 24 hours, incubation 3 Week, TSB) was “−,−”. For the same compound, the growth ([3]; treatment 24 hours, incubation 4 Week, TSA) was “−,−”, the growth ([3]; treatment 24 hours, incubation 4 Week, TSB) was “−,−” and the growth ([3]; treatment 24 hours, incubation 6 Week, TSA) was “−,−”. The growth ([3]; treatment 24 hours, incubation 6 Week, TSB) was “−,−”, the growth ([3]; treatment 48 hours, incubation 1 Day, TSA) was “−,−” and the growth ([3]; treatment 48 hours, incubation 1 Day, TSB) was “−,−”. For the same compound, the growth ([3]; treatment 48 hours, incubation 1 Week, TSA) was “−,−”, the growth ([3]; treatment 48 hours, incubation 1 Week, TSB) was “−,−” and the growth ([3]; treatment 48 hours, incubation 3 Week, TSA) was “−,−”. The growth ([3]; treatment 48 hours, incubation 3 Week, TSB) was “−,−”, the growth ([3]; treatment 48 hours, incubation 4 Week, TSA) was “−,−” and the growth ([3]; treatment 48 hours, incubation 4 Week, TSB) was “−,−”. For the same compound, the growth ([3]; treatment 48 hours, incubation 6 Week, TSA) was “−,−”, the growth ([3]; treatment 48 hours, incubation 6 Week, TSB) was “−,−” and the growth ([3]; treatment 72 hours, incubation 1 Day, TSA) was “−,−”. The growth ([3]; treatment 72 hours, incubation 1 Day, TSB) was “−,−”, the growth ([3]; treatment 72 hours, incubation 1 Week, TSA) was “−,−” and the growth ([3]; treatment 72 hours, incubation 1 Week, TSB) was “−,−”. The growth ([3]; treatment 72 hours, incubation 3 Week, TSA) was “−,−”, the growth ([3]; treatment 72 hours, incubation 3 Week, TSB) was “−,−” and the growth ([3]; treatment 72 hours, incubation 4 Week, TSA) was “−,−”. For the same compound, the growth ([3]; treatment 72 hours, incubation 4 Week, TSB) was “−,−”, the growth ([3]; treatment 72 hours, incubation 6 Week, TSA) was “−,−” and the growth ([3]; treatment 72 hours, incubation 6 Week, TSB) was “−,−”.
